Test results: patent publication US7820714B2, “Siglec inhibitors” (priority 2001, dated 2010)
Read-outs that look alike come from different tables or passages of the source.

Legend:
Siglec-1 (sialoadhesin) = Siglec-1 (sialoadhesin) (Mus musculus, UniProt Q62230); experiment: Hapten inhibition assay, Siglec-1 (sialoadhesin); type: binding; details: for Siglec-1 (sialoadhesin) rIP: quotient IC50 reference compound / IC50 compound; for Siglec-1 (sialoadhesin) percentage in parentheses below the IC50 bound: at the concentration of the IC50 bound, meaning not defined in the patent
Experimental: (§2) Preferably, the inhibition can be determined by a Hapten inhibition test. […] After overnight incubation at 4° C. the unbound complexes are removed by washing the cells and the bound radioactivity is determined. From the data obtained in this way, the concentrations are found which lead to 50% inhibition of the binding (IC50 values) (5, 6). Specially preferred during the Hapten inhibition test was 10 μl of the complex solution with an activity of 10^3 Bq ^125I mixed with the same volume of a solution of the substance to be investigated (concentrated three times) and incubated at 4° C. for one hour. Then followed the addition of 10 μl of a suspension of target cells, preferably 0.25 to 0.5% of human erythrocytes and incubation overnight at 4° C. The unbound radioactivity is removed by washing the cells five times with 200 μl of washing buffer, preferably phosphate-buffered saline with 0.1% (W/V) bovine serum albumin, and the cell-bound activity is determined with a γ-counter. […] The inhibition is determined in that the value without inhibitor is set to 0% and that with the sialidase-treated cells is set equal to 100%.
(§3) The IC50 value is the siglec inhibitor concentration which leads to 50% inhibition in the binding in the Hapten inhibition assay.

Siglec-2 (human CD22) = biological target: T1, Siglec-2 (human CD22) (Homo sapiens, UniProt P20273); experiment: Hapten inhibition assay, Siglec-2 (human CD22); type: binding; details: for Siglec-2 (human CD22) rIP: quotient IC50 reference compound / IC50 compound
T1 sequence (P20273 20-138 limits assumed): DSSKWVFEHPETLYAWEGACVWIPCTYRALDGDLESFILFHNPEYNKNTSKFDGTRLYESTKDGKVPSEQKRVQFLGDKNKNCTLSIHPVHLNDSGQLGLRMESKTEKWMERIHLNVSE
Experimental: as §2, §3

Siglec-2 (murine CD22) = biological target: T2, Siglec-2 (murine CD22) (Mus musculus, UniProt P35329); experiment: Hapten inhibition assay, Siglec-2 (murine CD22); type: binding; details: for Siglec-2 (murine CD22) rIP: quotient IC50 reference compound / IC50 compound
T2 sequence (P35329 22-148 limits assumed): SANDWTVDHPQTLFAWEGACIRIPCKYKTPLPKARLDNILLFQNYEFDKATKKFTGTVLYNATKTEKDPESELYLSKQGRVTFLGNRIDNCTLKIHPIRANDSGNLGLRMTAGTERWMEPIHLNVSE
Experimental: as §2, §3

Daudi cells = experiment: Ca2+ concentration in Daudi cells stimulated with anti-IgM; type: cell-based; details: Daudi cells stimulated with anti-IgM in the presence of the compound
Source text: (§1) The compound BPC-Neu5Ac (shown below) was used according to known methods in test series for the investigation of the selectivity and the activity. […] This impairment with regard to the binding of ligands leads to an incomplete activation of the intracellular inhibitor domain of CD22.

[1] = test system: primary B-lymphocytes from human blood; experiment: Ca2+ concentration in primary B-lymphocytes stimulated with anti-IgM; type: cell-based
Source text: as §1

Siglec-4a (MAG) = biological target: T3, Siglec-4a (MAG) (UniProt P20917); experiment: Hapten inhibition assay, Siglec-4a (MAG); details: for Siglec-4a (MAG) rIP: quotient IC50 reference compound / IC50 compound; for IC50: read-out: Siglec-4a (MAG) IC50; for binds stronger to siglec-4a than the reference compound: relative to 2-alpha-methyl-5-N-acetyl-neuraminic acid
T3 sequence (P20917 1-627): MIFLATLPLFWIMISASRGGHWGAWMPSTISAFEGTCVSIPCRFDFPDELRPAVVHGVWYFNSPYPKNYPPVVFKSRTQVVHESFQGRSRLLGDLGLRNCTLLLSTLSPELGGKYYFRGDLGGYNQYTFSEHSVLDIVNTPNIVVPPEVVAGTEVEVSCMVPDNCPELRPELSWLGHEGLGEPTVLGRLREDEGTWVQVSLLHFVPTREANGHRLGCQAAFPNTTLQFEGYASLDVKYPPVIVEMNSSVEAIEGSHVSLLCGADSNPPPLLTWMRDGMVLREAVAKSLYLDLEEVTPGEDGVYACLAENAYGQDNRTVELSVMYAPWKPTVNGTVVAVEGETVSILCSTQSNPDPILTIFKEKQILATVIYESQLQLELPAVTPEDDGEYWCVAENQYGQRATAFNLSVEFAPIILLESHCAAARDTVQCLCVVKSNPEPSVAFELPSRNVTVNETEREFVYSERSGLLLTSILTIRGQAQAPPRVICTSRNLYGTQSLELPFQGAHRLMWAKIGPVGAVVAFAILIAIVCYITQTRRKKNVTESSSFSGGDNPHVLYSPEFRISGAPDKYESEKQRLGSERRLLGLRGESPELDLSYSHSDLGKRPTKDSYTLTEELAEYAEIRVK
Experimental: Preferably, the inhibition can be determined by a Hapten inhibition test. […] After overnight incubation at 4° C. the unbound complexes are removed by washing the cells and the bound radioactivity is determined. […] Then followed the addition of 10 μl of a suspension of target cells, preferably 0.25 to 0.5% of human erythrocytes and incubation overnight at 4° C. The unbound radioactivity is removed by washing the cells five times with 200 μl of washing buffer, preferably phosphate-buffered saline with 0.1% (W/V) bovine serum albumin, and the cell-bound activity is determined with a γ-counter. […] The inhibition is determined in that the value without inhibitor is set to 0% and that with the sialidase-treated cells is set equal to 100%.

[2] = at the concentration of the IC50 bound, meaning not defined in the patent

Sequence of Siglec-1 (sialoadhesin) (Q62230 20-136 limits assumed): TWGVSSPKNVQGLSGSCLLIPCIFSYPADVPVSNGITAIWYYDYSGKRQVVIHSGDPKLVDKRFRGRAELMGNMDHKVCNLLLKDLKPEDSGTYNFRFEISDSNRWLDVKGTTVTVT

Compound: CO[C@]1(C(=O)O)CC(O)[C@@H](NC(C)=O)C([C@@H](O)[C@H](O)CNC(=O)c2ccc(-c3ccccc3)cc2)O1 (stereo partly drawn) [Methyl-α-9-N-(biphenyl-4-carbonyl)-amino-9-desoxy-Neu5Ac]
- Siglec-1 (sialoadhesin) rIP (Siglec-1 (sialoadhesin)): 13
- IC50 (Siglec-1 (sialoadhesin); unit inferred): 0.052 mM
- selectivity of affinity for hCD22 (Siglec-2 (human CD22); in words): very remarkable selective affinity for hCD22
- Siglec-2 (human CD22) rIP (Siglec-2 (human CD22)): 150
- binds stronger to siglec-2 than the reference compound (Siglec-2 (human CD22); relative to 2-alpha-methyl-5-N-acetyl-neuraminic acid): approximately 150 times
- IC50 (Siglec-2 (human CD22); unit inferred): 0.004 mM
- Siglec-2 (murine CD22) rIP (Siglec-2 (murine CD22)): 5.0
- IC50 (Siglec-2 (murine CD22); unit inferred): 1.22 mM
- Ca2+ concentration (Daudi cells): rise in the Ca^2+ concentration
- Ca2+ concentration [1]: clearly increased Ca^2+ concentration
- Siglec-4a (MAG) rIP (Siglec-4a (MAG)): 218
- IC50 (Siglec-4a (MAG); unit inferred): 0.022 mM

Compound: CO[C@]1(C(=O)O)C[C@H](O)[C@@H](NC(C)=O)[C@H]([C@H](O)[C@H](O)CNC(=O)Cc2ccc3ccccc3c2)O1 [Methyl-α-9-N-(naphthyl-2-acetyl)-amino-9-desoxy-Neu5Ac]
- Siglec-1 (sialoadhesin) rIP (Siglec-1 (sialoadhesin)): 0.5
- IC50 (Siglec-1 (sialoadhesin); unit inferred): 1.75 mM
- Siglec-2 (human CD22) rIP (Siglec-2 (human CD22)): 131
- IC50 (Siglec-2 (human CD22); unit inferred): 0.008 mM
- Siglec-2 (murine CD22) rIP (Siglec-2 (murine CD22)): 83
- IC50 (Siglec-2 (murine CD22); unit inferred): 0.071 mM
- Siglec-4a (MAG) rIP (Siglec-4a (MAG)): 13
- IC50 (Siglec-4a (MAG); unit inferred): 0.367 mM

Compound: COC1(C(=O)O)CC(O)C(NC(C)=O)C(C(O)C(O)CNC(=O)c2ccc3ccccc3c2)O1 (stereo not drawn) [Methyl-α-9-N-(naphthyl-2-carbonyl)-amino-9-desoxy-Neu5Ac]
- Siglec-1 (sialoadhesin) rIP (Siglec-1 (sialoadhesin)): 12
- IC50 (Siglec-1 (sialoadhesin); unit inferred): 0.078 mM
- Siglec-2 (human CD22) rIP (Siglec-2 (human CD22)): 167
- IC50 (Siglec-2 (human CD22); unit inferred): 0.006 mM
- Siglec-2 (murine CD22) rIP (Siglec-2 (murine CD22)): 18
- IC50 (Siglec-2 (murine CD22); unit inferred): 0.27 mM
- Siglec-4a (MAG) rIP (Siglec-4a (MAG)): 236
- IC50 (Siglec-4a (MAG); unit inferred): 0.02 mM
- binds stronger to siglec-4a than the reference compound (Siglec-4a (MAG)): approx. 236 times

Compound: COC1(C(=O)O)CC(O)C(NC(C)=O)C(C(O)C(O)CNC(=O)c2c(F)c(F)c(F)c(F)c2F)O1 (stereo not drawn) [Methyl-α-9-N-(pentafluorbenzoyl)-amino-9-desoxy-Neu5Ac]
- Siglec-1 (sialoadhesin) rIP (Siglec-1 (sialoadhesin)): 0.3
- IC50 (Siglec-1 (sialoadhesin); unit inferred): 7 mM
- Siglec-2 (human CD22) rIP (Siglec-2 (human CD22)): 3.3
- IC50 (Siglec-2 (human CD22); unit inferred): 0.36 mM
- Siglec-2 (murine CD22) rIP (Siglec-2 (murine CD22)): 2.0
- IC50 (Siglec-2 (murine CD22); unit inferred): 2.5 mM
- Siglec-4a (MAG) rIP (Siglec-4a (MAG)): 42
- IC50 (Siglec-4a (MAG); unit inferred): 0.107 mM

Compound: CO[C@]1(C(=O)O)C[C@H](O)[C@@H](NC(C)=O)[C@H]([C@H](O)[C@H](O)CNC(=O)c2cccnc2)O1 [Methyl-α-9-N-(pyridine-3-carbonyl)-amino-9-desoxy-Neu5Ac]
- Siglec-1 (sialoadhesin) rIP (Siglec-1 (sialoadhesin)): 0.5
- Siglec-2 (human CD22) rIP (Siglec-2 (human CD22)): 2.3
- IC50 (Siglec-2 (human CD22); unit inferred): 0.445 mM
- Siglec-2 (murine CD22) rIP (Siglec-2 (murine CD22)): 14
- IC50 (Siglec-2 (murine CD22); unit inferred): 0.335 mM
- Siglec-4a (MAG) rIP (Siglec-4a (MAG)): 170
- IC50 (Siglec-4a (MAG); unit inferred): 0.025 mM

Compound: CO[C@]1(C(=O)O)C[C@H](O)[C@@H](NC(C)=O)[C@H]([C@H](O)[C@H](O)CNC(C)=O)O1 [Methyl-α-9-N-acetyl-amino-9-desoxy-Neu5Ac]
- Siglec-1 (sialoadhesin) rIP (Siglec-1 (sialoadhesin)): 0.2
- IC50 (Siglec-1 (sialoadhesin); unit inferred): 3.82 mM
- Siglec-2 (human CD22) rIP (Siglec-2 (human CD22)): 0.6
- IC50 (Siglec-2 (human CD22); unit inferred): 1.8 mM
- Siglec-2 (murine CD22) rIP (Siglec-2 (murine CD22)): 2.7
- IC50 (Siglec-2 (murine CD22); unit inferred): 1.75 mM
- Siglec-4a (MAG) rIP (Siglec-4a (MAG)): 3.7
- IC50 (Siglec-4a (MAG); unit inferred): 2.15 mM

Compound: CO[C@]1(C(=O)O)C[C@H](O)[C@@H](NC(C)=O)[C@H]([C@H](O)[C@H](O)CNC(=O)c2ccccc2)O1 [Methyl-α-9-N-benzoyl-amino-9-desoxy-Neu5Ac]
- Siglec-1 (sialoadhesin) rIP (Siglec-1 (sialoadhesin)): 1.8
- IC50 (Siglec-1 (sialoadhesin); unit inferred): 0.539 mM
- Siglec-2 (human CD22) rIP (Siglec-2 (human CD22)): 5.7
- IC50 (Siglec-2 (human CD22); unit inferred): 0.29 mM
- Siglec-2 (murine CD22) rIP (Siglec-2 (murine CD22)): 3.7
- IC50 (Siglec-2 (murine CD22); unit inferred): 1.09 mM
- Siglec-4a (MAG) rIP (Siglec-4a (MAG)): 704
- IC50 (Siglec-4a (MAG); unit inferred): 0.007 mM
- binds stronger to siglec-4a than the reference compound (Siglec-4a (MAG)): approximately 704 times

Compound: CO[C@]1(C(=O)O)C[C@H](O)[C@@H](NC(C)=O)[C@H]([C@H](O)[C@H](O)CNC(=O)C2CCCCC2)O1 [Methyl-α-9-N-cyclohexanoyl-amino-9-desoxy-Neu5Ac]
- Siglec-1 (sialoadhesin) percentage in parentheses below the IC50 bound (Siglec-1 (sialoadhesin)): (93%)
- IC50 (Siglec-1 (sialoadhesin); bounds given in mM): > 1 mM
- Siglec-1 (sialoadhesin) rIP (Siglec-1 (sialoadhesin)): 0.2
- Siglec-2 (human CD22) rIP (Siglec-2 (human CD22)): 4.1
- IC50 (Siglec-2 (human CD22); unit inferred): 0.383 mM
- Siglec-2 (murine CD22) rIP (Siglec-2 (murine CD22)): 6.9
- IC50 (Siglec-2 (murine CD22); unit inferred): 0.76 mM
- Siglec-4a (MAG) rIP (Siglec-4a (MAG)): 50
- IC50 (Siglec-4a (MAG); unit inferred): 0.11 mM

Compound: CO[C@]1(C(=O)O)C[C@H](O)[C@@H](NC(C)=O)[C@H]([C@H](O)[C@H](O)CO)O1 [Methyl-α-Neu5Ac, reference compound]
- Siglec-1 (sialoadhesin) rIP (Siglec-1 (sialoadhesin)): 1.0
- IC50 (Siglec-1 (sialoadhesin); unit inferred): 0.884 mM
- Siglec-2 (human CD22) rIP (Siglec-2 (human CD22)): 1.0
- IC50 (Siglec-2 (human CD22); unit inferred): 1.39 mM
- Siglec-2 (murine CD22) rIP (Siglec-2 (murine CD22)): 1.0
- IC50 (Siglec-2 (murine CD22); unit inferred): 4.69 mM
- Siglec-4a (MAG) rIP (Siglec-4a (MAG)): 1.0
- IC50 (Siglec-4a (MAG); unit inferred): 4.72 mM

Compound: COC1(C(=O)O)CC(O)C(O)C(C(O)C(O)CO)O1 (stereo not drawn) [Methyl-α-ketodesoxy-nonulsonic acid]
- Siglec-1 (sialoadhesin) percentage in parentheses below the IC50 bound (Siglec-1 (sialoadhesin)): (74%)
- IC50 (Siglec-1 (sialoadhesin); bounds given in mM): > 1 mM
- Siglec-1 (sialoadhesin) rIP (Siglec-1 (sialoadhesin)): <0.8
- Siglec-2 (human CD22) percentage in parentheses below the IC50 bound (Siglec-2 (human CD22); [2]): (117%)
- IC50 (Siglec-2 (human CD22); bounds given in mM): > 1 mM
- Siglec-2 (human CD22) rIP (Siglec-2 (human CD22)): <<2
- Siglec-2 (murine CD22) percentage in parentheses below the IC50 bound (Siglec-2 (murine CD22); [2]): (74%)
- IC50 (Siglec-2 (murine CD22); bounds given in mM): > 2 mM
- Siglec-2 (murine CD22) rIP (Siglec-2 (murine CD22)): <1.5
- Siglec-4a (MAG) percentage in parentheses below the IC50 bound (Siglec-4a (MAG); [2]): (225%)
- Siglec-4a (MAG) rIP (Siglec-4a (MAG)): <<0.5
- IC50 (Siglec-4a (MAG); bounds given in mM): > 1 mM

Compound: CS[C@]1(C(=O)O)C[C@H](O)[C@@H](NC(C)=O)[C@H]([C@H](O)[C@H](O)CO)O1 [Methylthio-α-Neu5Ac]
- Siglec-1 (sialoadhesin) rIP (Siglec-1 (sialoadhesin)): 0.8
- IC50 (Siglec-1 (sialoadhesin); unit inferred): 0.6 mM
- Siglec-2 (human CD22) rIP (Siglec-2 (human CD22)): 1.6
- IC50 (Siglec-2 (human CD22); unit inferred): 1.37 mM
- Siglec-2 (murine CD22) rIP (Siglec-2 (murine CD22)): 1.1
- IC50 (Siglec-2 (murine CD22); unit inferred): 4.25 mM
- Siglec-4a (MAG) rIP (Siglec-4a (MAG)): 1.3
- IC50 (Siglec-4a (MAG); unit inferred): 2.77 mM

Compound: Methyl-α-9-N-fluoresceinyl-amino-9-desoxy-Neu5Ac
- Siglec-1 (sialoadhesin) percentage in parentheses below the IC50 bound (Siglec-1 (sialoadhesin)): (121%)
- IC50 (Siglec-1 (sialoadhesin); bounds given in mM): > 1.5 mM
- Siglec-1 (sialoadhesin) rIP (Siglec-1 (sialoadhesin)): <<0.5
- Siglec-2 (human CD22) rIP (Siglec-2 (human CD22)): 28
- IC50 (Siglec-2 (human CD22); unit inferred): 0.077 mM
- Siglec-2 (murine CD22) rIP (Siglec-2 (murine CD22)): 48
- IC50 (Siglec-2 (murine CD22); unit inferred): 0.1 mM
- Siglec-4a (MAG) rIP (Siglec-4a (MAG)): 41
- IC50 (Siglec-4a (MAG); unit inferred): 0.106 mM
